Assay results taken from ChEMBL document CHEMBL4665676, “Matrix Metalloproteinases as New Targets in Alzheimer's Disease: Opportunities and Challenges” (J Med Chem, 2020).
Blank lines part the entries; values can stand above or below the molecule they belong to. Peptide text beside a SMILES is read from it.

Tests used:
[1] = target: T1, 72 kDa type IV collagenase (Homo sapiens, UniProt P08253); experiment: Inhibition of MMP2 (unknown origin) using 3163v as substrate preincubated for 15 mins followed by substrate addition and measured after 40 mins by fluorometric method
T1 sequence (P08253 whole entry): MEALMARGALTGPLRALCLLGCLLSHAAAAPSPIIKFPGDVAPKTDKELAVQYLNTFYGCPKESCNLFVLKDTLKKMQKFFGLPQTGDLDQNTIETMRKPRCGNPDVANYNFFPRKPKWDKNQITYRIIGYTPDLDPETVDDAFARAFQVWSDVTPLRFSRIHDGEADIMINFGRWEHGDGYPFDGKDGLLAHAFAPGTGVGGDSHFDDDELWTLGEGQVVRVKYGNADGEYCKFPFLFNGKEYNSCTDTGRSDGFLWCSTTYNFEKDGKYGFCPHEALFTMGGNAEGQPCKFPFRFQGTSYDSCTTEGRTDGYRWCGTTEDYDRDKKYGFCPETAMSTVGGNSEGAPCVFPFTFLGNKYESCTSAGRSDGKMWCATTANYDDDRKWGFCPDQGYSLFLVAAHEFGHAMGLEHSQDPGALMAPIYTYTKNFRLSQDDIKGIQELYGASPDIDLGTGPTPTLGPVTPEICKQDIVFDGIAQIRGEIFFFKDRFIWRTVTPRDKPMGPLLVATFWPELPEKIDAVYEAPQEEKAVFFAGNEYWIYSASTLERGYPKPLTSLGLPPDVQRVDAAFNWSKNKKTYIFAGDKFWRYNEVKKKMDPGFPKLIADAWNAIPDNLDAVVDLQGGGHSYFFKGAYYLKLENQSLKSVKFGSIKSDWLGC

[2] = target: T2, Matrix metalloproteinase-14 (Homo sapiens, UniProt P50281); experiment: Inhibition of human MT1-MMP using 3163v as substrate preincubated for 15 mins followed by substrate addition and measured after 40 mins by fluorometric method
Stromelysin-1 = Stromelysin-1 (Homo sapiens, UniProt P08254); experiment: Inhibition of MMP3 (unknown origin) using 3168v as substrate preincubated for 15 mins followed by substrate addition and measured after 40 mins by fluorometric method
Sequence of Stromelysin-1 (P08254 whole entry): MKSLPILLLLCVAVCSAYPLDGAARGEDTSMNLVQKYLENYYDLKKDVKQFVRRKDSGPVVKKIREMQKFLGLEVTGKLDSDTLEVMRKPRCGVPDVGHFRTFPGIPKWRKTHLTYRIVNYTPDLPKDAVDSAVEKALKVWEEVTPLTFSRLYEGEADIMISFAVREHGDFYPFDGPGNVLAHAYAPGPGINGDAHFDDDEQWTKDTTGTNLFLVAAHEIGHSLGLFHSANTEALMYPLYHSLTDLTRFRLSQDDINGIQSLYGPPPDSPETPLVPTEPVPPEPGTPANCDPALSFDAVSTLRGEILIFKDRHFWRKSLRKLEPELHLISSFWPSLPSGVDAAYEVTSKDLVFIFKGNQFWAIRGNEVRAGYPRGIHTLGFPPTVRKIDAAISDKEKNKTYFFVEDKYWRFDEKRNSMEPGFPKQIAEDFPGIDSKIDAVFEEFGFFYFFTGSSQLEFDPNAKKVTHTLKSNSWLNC

Matrilysin = target: T3, Matrilysin (Homo sapiens, UniProt P09237); experiment: Inhibition of human MMP7 using 3163v as substrate preincubated for 15 mins followed by substrate addition and measured after 40 mins by fluorometric method
T3 sequence (P09237 whole entry): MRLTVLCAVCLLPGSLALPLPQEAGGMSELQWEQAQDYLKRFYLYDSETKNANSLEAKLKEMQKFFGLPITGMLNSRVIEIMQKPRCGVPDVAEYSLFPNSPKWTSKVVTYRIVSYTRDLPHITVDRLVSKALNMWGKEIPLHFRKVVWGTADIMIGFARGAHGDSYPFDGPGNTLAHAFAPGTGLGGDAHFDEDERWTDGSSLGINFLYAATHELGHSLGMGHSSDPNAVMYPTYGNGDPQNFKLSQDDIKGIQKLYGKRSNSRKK

[3] = target: T4, Matrix metalloproteinase-9 (Homo sapiens, UniProt P14780); experiment: Inhibition of human MMP9 using 3163v as substrate preincubated for 15 mins followed by substrate addition and measured after 40 mins by fluorometric method
T4 sequence (P14780 whole entry): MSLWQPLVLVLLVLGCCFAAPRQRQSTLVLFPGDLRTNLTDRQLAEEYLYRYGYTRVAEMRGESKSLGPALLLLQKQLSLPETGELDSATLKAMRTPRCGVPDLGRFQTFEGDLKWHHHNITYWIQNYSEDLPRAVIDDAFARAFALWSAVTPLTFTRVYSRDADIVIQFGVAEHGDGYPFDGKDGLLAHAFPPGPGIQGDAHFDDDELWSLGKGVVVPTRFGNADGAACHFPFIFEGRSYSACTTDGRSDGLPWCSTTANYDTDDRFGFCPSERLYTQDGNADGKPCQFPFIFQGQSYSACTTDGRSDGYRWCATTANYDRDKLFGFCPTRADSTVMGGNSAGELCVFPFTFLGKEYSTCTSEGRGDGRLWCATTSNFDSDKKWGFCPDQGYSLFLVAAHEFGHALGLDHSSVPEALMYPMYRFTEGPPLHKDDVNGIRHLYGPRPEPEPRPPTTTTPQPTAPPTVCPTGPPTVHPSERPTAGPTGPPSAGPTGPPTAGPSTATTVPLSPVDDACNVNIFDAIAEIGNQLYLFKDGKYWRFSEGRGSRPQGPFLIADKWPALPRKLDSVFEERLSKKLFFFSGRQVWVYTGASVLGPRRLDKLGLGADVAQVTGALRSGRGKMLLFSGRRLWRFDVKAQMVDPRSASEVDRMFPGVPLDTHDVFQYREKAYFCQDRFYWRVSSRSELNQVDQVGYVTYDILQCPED

[4] = target: Macrophage metalloelastase (Homo sapiens, UniProt P39900); experiment: Inhibition of recombinant human MMP12 using Mca-Pro-Leu-Gly-Leu-Dpa-Ala-Arg-NH2 as substrate by […] method
Sequence of Macrophage metalloelastase (P39900 whole entry, the tested form may be a part): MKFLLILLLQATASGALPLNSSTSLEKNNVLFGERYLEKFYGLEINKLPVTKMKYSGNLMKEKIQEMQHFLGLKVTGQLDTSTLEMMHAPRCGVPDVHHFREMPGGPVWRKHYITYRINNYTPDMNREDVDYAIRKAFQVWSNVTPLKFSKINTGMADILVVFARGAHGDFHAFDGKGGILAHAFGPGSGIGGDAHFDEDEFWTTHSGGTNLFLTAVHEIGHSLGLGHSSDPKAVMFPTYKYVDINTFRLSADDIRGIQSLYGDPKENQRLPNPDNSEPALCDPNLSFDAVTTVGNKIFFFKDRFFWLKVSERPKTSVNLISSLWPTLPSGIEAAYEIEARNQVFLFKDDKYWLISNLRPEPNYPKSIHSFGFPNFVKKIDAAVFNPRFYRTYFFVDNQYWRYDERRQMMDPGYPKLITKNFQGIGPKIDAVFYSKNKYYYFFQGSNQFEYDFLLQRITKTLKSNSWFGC

[5] = target: T2, Matrix metalloproteinase-14; experiment: Inhibition of MT1-MMP catalytic domain (unknown origin) expressed in Escherichia coli using 7-methoxycoumarin-4-yl)acetyl-Pro-Leu-Gly-Leu-(3-[2,4-dinitrophenyl]-L-2,3-diaminopropionyl)-Ala-Arg-NH2 as substrate incubated for 30 mins by fluorescence method
[6] = target: T1, 72 kDa type IV collagenase; experiment: Inhibition of human MMP2 measured at 5 mins interval for 1 hr by fluorescence method
[7] = target: T4, Matrix metalloproteinase-9; experiment: Inhibition of human MMP9 measured at 5 mins interval for 1 hr by fluorescence method

IC50 [1]: 0.03 µM
IC50 [2]: 2 µM
IC50 (Stromelysin-1): > 10 µM
IC50 (Matrilysin): > 10 µM
IC50 [3]: > 10 µM
Compound: CC[C@H](C)[C@H](N)C(=O)N[C@@H](CO)C(=O)N[C@@H](Cc1ccc(O)cc1)C(=O)NCC(=O)N[C@@H](CC(N)=O)C(=O)N[C@@H](CC(=O)O)C(=O)N[C@@H](C)C(=O)N[C@@H](CC(C)C)C(=O)N[C@@H](CCSC)C(=O)N1CCC[C@H]1C(=O)O (H-ISYGNDALMP-OH)

IC50 [4]: 0.0025 µM
Compound: NC(=O)[C@H](CCC(=O)O)NC(=O)c1ccc(-c2cc(-c3ccccc3)cs2)cc1

IC50 [5]: > 100 µM
Compound: CCCC(C)NC(=O)c1ccc(Cl)c(Cl)c1 (centres undefined)

IC50 [6]: 0.656 µM
IC50 [7]: 0.31 µM
Compound: CCCCCC(=O)N1CC(F)(F)C[C@@H]1C(=O)N(C)[C@H](C(=O)N[C@@H](CCNC(=O)c1ccccc1)C(=O)NO)[C@@H](C)CC
